Test results taken from ChEMBL document CHEMBL1137887, “Application of the Stille coupling reaction to the synthesis of C2-substituted endo-exo unsaturated pyrrolo[2,1-c][1,4]benzodiazepines (PBDs)” (2004).

tested on: Panel NCI-60 (60 carcinoma cell lines); experiment: In vitro mean of concentrations that inhibits cell growth across 60 cell lines of the NCI panel after incubation for 48 hr at 37 degree C was measured using SRB assay; format: functional; conditions: Homo sapiens

`COc1cc2c(cc1OC)C(=O)N1C=C(C#Cc3ccccc3)C[C@H]1C=N2` and `COc1cc2c(cc1OC)C(=O)N1C=C(c3ccccc3)C[C@H]1C=N2` cannot be ordered by GI50: less than 0.01 µM for the first, less than 0.01 µM for the second.

First: COc1cc2c(cc1OC)C(=O)N1C=C(c3cccs3)C[C@H]1C=N2
Second: COc1cc2c(cc1OC)C(=O)N1C=C(c3ccco3)C[C@H]1C=N2
The GI50 of the first is higher: 0.02 µM for the first, less than 0.01 µM for the second.

Going from `COc1cc2c(cc1OC)C(=O)N1CCC[C@H]1C=N2` to `COc1cc2c(cc1OC)C(=O)N1C=CC[C@H]1C=N2`, the GI50 falls from 2.39 µM to 1.28 µM (1.9-fold).

With `C=CC1=CN2C(=O)c3cc(OC)c(OC)cc3N=C[C@@H]2C1` the GI50 was 0.12 µM.
